Results as given in ChEMBL document CHEMBL3745696, “Synthesis and cytotoxic activity of novel hexahydropyrrolo[2,3-b]indole imidazolium salts” (Bioorg Med Chem Lett, 2016).

Tests used:
Type in all cases: functional, cell-based
[1] = Cytotoxicity against human HL60 cells by MTT assay; details: HL-60
[2] = Cytotoxicity against human SMMC7721 cells by MTT assay; details: SMMC-7721
A549 = experiment: Cytotoxicity against human A549 cells by MTT assay
MCF7 = experiment: Cytotoxicity against human MCF7 cells by MTT assay
SW480 = experiment: Cytotoxicity against human SW480 cells by MTT assay

Compound	IC50 [1] [µM]	IC50 [2] [µM]	IC50 (A549) [µM]	IC50 (MCF7) [µM]	IC50 (SW480) [µM]
Cc1n(CC(=O)N2CCC3(C)c4ccccc4N(C)C23)c2ccccc2[n+]1CC(=O)c1ccc2ccccc2c1 (stereo not given)	5.95	7.09	7.64	9.45	10.1
Cc1cc2ncn(CC(=O)N3CCC4(C)c5ccccc5N(C)C34)c2cc1C (stereo not given)	> 20	> 20	> 20	> 20	> 20
COc1ccc(C(=O)C[n+]2c(C)n(CC(=O)N3CCC4(C)c5ccccc5N(C)C34)c3ccccc32)cc1 (stereo not given)	> 20	> 20	> 20	> 20	> 20
CN1c2ccccc2C2(C)CCN(C(=O)Cn3cnc4ccccc43)C12 (stereo not given)	> 20	> 20	> 20	> 20	> 20
Cc1cc2c(cc1C)[n+](Cc1ccccc1Br)cn2CC(=O)N1CCC2(C)c3ccccc3N(C)C12 (stereo not given)	1.67	5.61	12.7	6.28	7.24
Cc1ccc(C[n+]2ccn(CC(=O)N3CCC4(C)c5ccccc5N(Cc5ccccc5)C34)c2C)cc1 (stereo not given)	0.47	19.5	> 20	7.26	9.71
CC12CCN(C(=O)Cn3c[n+](CC(=O)c4ccccc4)c4ccccc43)C1N(Cc1ccccc1)c1ccccc12 (stereo not given)	5.72	14.5	> 20	8.16	8.43
Cc1cc2c(cc1C)[n+](CC(=O)c1ccccc1)cn2CC(=O)N1CCC2(C)c3ccccc3N(C)C12 (stereo not given)	8.03	> 20	> 20	13.4	> 20
Cc1n(CC(=O)N2CCC3(C)c4ccccc4N(C)C23)c2ccccc2[n+]1Cc1ccc2ccccc2c1 (stereo not given)	1.49	4.34	16.7	5.09	7.36
COc1ccc(C(=O)C[n+]2ccn(CC(=O)N3CCC4(C)c5ccccc5N(Cc5ccccc5)C34)c2C)cc1 (stereo not given)	1.3	> 20	> 20	10.6	> 20
CC12CCN(C(=O)Cn3c[n+](Cc4ccc(Br)cc4)c4ccccc43)C1N(Cc1ccccc1)c1ccccc12 (stereo not given)	1.42	7.53	7.59	3.87	7.43
CC12CCN(C(=O)Cn3c[n+](CC(=O)c4ccc(Br)cc4)c4ccccc43)C1N(Cc1ccccc1)c1ccccc12 (stereo not given)	2.93	8.43	8.07	8.15	9.18
Cc1n(CC(=O)N2CCC3(C)c4ccccc4N(Cc4ccccc4)C23)cc[n+]1CC(=O)c1ccc2ccccc2c1 (stereo not given)	2.2	4.79	11.2	5.67	7.78
Cc1n(CC(=O)N2CCC3(C)c4ccccc4N(C)C23)c2ccccc2[n+]1Cc1ccccc1Br (stereo not given)	3.72	10.8	> 20	8.95	> 20
COc1ccc(C(=O)C[n+]2cn(CC(=O)N3CCC4(C)c5ccccc5N(Cc5ccccc5)C34)c3ccccc32)cc1 (stereo not given)	5.94	10	> 20	7.83	8.35
Cc1n(CC(=O)N2CCC3(C)c4ccccc4N(Cc4ccccc4)C23)cc[n+]1CC(=O)c1ccc(Br)cc1 (stereo not given)	7.75	> 20	> 20	> 20	> 20
Cc1cc2c(cc1C)[n+](CC(=O)c1ccc(Br)cc1)cn2CC(=O)N1CCC2(C)c3ccccc3N(C)C12 (stereo not given)	7.31	8.72	> 20	8.28	8.52

Compound	IC50 [1] [µM]	IC50 [2] [µM]	IC50 (A549) [µM]	IC50 (MCF7) [µM]	IC50 (SW480) [µM]
CC12CCN(C(=O)Cn3c[n+](CC(=O)c4ccc5ccccc5c4)c4ccccc43)C1N(Cc1ccccc1)c1ccccc12 (stereo not given)	1.64	7.62	7.4	5.13	6.88
CC12CCN(C(=O)Cn3cnc4ccccc43)C1N(Cc1ccccc1)c1ccccc12 (stereo not given)	> 20	> 20	> 20	> 20	> 20
Cc1cc2c(cc1C)[n+](CC(=O)c1ccc3ccccc3c1)cn2CC(=O)N1CCC2(C)c3ccccc3N(C)C12 (stereo not given)	1.6	2.85	6.47	4.88	5.01
CC12CCN(C(=O)Cn3c[n+](Cc4ccccc4Br)c4ccccc43)C1N(Cc1ccccc1)c1ccccc12 (stereo not given)	1.21	4.69	6.76	2.23	6.35
Cc1cc2ncn(CC(=O)N3CCC4(C)c5ccccc5N(Cc5ccccc5)C34)c2cc1C (stereo not given)	> 20	> 20	> 20	> 20	> 20
CC12CCNC1N(Cc1ccccc1)c1ccccc12 (stereo not given)	> 20	> 20	> 20	> 20	> 20
Cc1ccc(C[n+]2c(C)n(CC(=O)N3CCC4(C)c5ccccc5N(C)C34)c3ccccc32)cc1 (stereo not given)	2.25	8.03	> 20	10.8	> 20
Cc1n(CC(=O)N2CCC3(C)c4ccccc4N(C)C23)c2ccccc2[n+]1CC(=O)c1ccc(Br)cc1 (stereo not given)	> 20	> 20	> 20	> 20	> 20
Cc1n(CC(=O)N2CCC3(C)c4ccccc4N(Cc4ccccc4)C23)cc[n+]1CC(=O)c1ccccc1 (stereo not given)	> 20	> 20	> 20	> 20	> 20
Cc1cc2c(cc1C)[n+](Cc1ccc(Br)cc1)cn2CC(=O)N1CCC2(C)c3ccccc3N(C)C12 (stereo not given)	1.73	5.69	17.4	3.08	6.9
Cc1nc2ccccc2n1CC(=O)N1CCC2(C)c3ccccc3N(C)C12 (stereo not given)	> 20	> 20	> 20	> 20	> 20
Cc1nc2ccccc2n1CC(=O)N1CCC2(C)c3ccccc3N(Cc3ccccc3)C12 (stereo not given)	> 20	> 20	> 20	> 20	> 20
COc1ccc(C(=O)C[n+]2cn(CC(=O)N3CCC4(C)c5ccccc5N(C)C34)c3cc(C)c(C)cc32)cc1 (stereo not given)	6.23	7.49	> 20	8.15	11.1
CN1c2ccccc2C2(C)CCNC12 (stereo not given)	> 20	> 20	> 20	> 20	> 20
CN1c2ccccc2C2(C)CCN(C(=O)Cn3ccnc3)C12 (stereo not given)	> 20	> 20	> 20	> 20	> 20
Cc1nccn1CC(=O)N1CCC2(C)c3ccccc3N(C)C12 (stereo not given)	> 20	> 20	> 20	> 20	> 20
Cc1nccn1CC(=O)N1CCC2(C)c3ccccc3N(Cc3ccccc3)C12 (stereo not given)	> 20	> 20	> 20	> 20	> 20
